The values below come from patent publication US8354443B2, “Cyclopropane indolinone derivatives” (Hoffmann-La Roche Inc., priority 2009, dated 2013).

The assay deals with recombinant AMPK proteins (α1β1γ1, α2β1γ1, α1(1-335), α1(1-394) or α2(1-394)). The assay can be described thus: Scintillation Proximity Assay (AMPK activation). In kind it is biochemical, human. As to conditions: effective concentration of activator for 50% of maximal enzyme activity; 2 hr at 30° C.; AMPK form not specified. The text has this:
Recombinant human AMPK α1β1γ1, α2β1γ1 or AMPK a subunit truncations α1 (1-335), α1 (1-394) and α2(1-394) were constructed, expressed and purified as described previously (Pang, T., Zhang, Z. S., Gu, M., Qiu, B. Y., Yu, L. F., Cao, P. R., Shao, W., Su, M. B., Li, J. Y., Nan, F. J., and Li, J. (2008) or purchased from Invitrogen (San Diego, Calif., U.S.A.). Rat liver AMPK heterotrimer enzyme was obtained from Upstate (Billerica, Mass., U.S.A.).
Before the Scintillation Proximity Assay (SPA) assay, 200 nM recombinant AMPK proteins (α1β1γ1, α2β1γ1, α1(1-335), α1(1-394) or α2(1-394)) were fully phosphorylated as described previously (Pang et al., 2008). SPA reactions were performed in 96-well plates at a final volume of 50 μl containing 20 mM Tris-HCl pH 7.5, 5 mM MgCl2, 1 mM DTT, 2 μM biotin-SAMS, 2 μM ATP, 0.2 μCi/well [γ-^33P]ATP, and various amount of activator. Reactions were initiated by the addition of 50 nM recombinant AMPK proteins to the reaction solutions and incubated at 30° C. for 2 hr. After that, reactions were terminated by the addition of 40 μl stop solution containing 80 μg streptavidin-coated SPA beads per well, 50 mM EDTA, 0.1% Triton X-100 in PBS, pH 7.5 and incubated for 1 hr. Finally, a 160 μl suspension solution containing 2.4 M CsCl, 50 mM EDTA, and 0.1% Triton X-100 in PBS (pH 7.5) was added to the reaction solution to suspend SPA beads completely. SPA signals were determined with a Wallac MicroBeta plate counter (PerkinElmer) 30 min later for calculation of the amount of product formed. The amount of products formed in 2 hr was plotted against activator concentrations to determine the effective concentration of the activator (EC50) required for 50% of maximal enzyme activity.
(In general: Scintillation proximity formats need no separation of bound from free tracer.)
As usually defined, the EC50 is the concentration needed to bring the measured effect to its halfway point. For `CS(=O)(=O)c1ccc([C@H]2C[C@]23C(=O)N(Cc2cccc(C(=O)O)c2)c2ccccc23)cc1` (racemic) [Example 7, (1S,2R) and (1R,2S)-3-((2-(4-(methylsulfonyl)phenyl)-2′-oxospiro[cyclopropane-1,3′-indoline]-1′-yl)methyl)benzoic acid], the EC50 came to 10.8 µM.
To `O=C(O)c1cccc(CN2C(=O)[C@]3(C[C@@H]3c3cccc(F)c3)c3ccccc32)c1` (racemic) [Example 10, (1S,2R) and (1R,2S)-3-((2-(3-fluorophenyl)-2′-oxospiro[cyclopropane-1,3′-indoline]-1′-yl)methyl)benzoic acid] belongs 2.02 µM.
Regarding `O=C(O)c1cccc(CN2C(=O)[C@]3(C[C@H]3c3cccc(F)c3)c3ccccc32)c1` (racemic) [Example 11, (1S,2S) and (1R,2R)-3-((2-(3-fluorophenyl)-2′-oxospiro[cyclopropane-1,3′-indoline]-1′-yl)methyl)benzoic acid], the EC50 is 2.04 µM.
As for `O=C(O)c1cccc(CN2C(=O)[C@]3(C[C@H]3c3ccccc3C(F)(F)F)c3ccccc32)c1` (racemic) [Example 12, (1S,2S) and (1R,2R)-3-((2′-oxo-2-(2-(trifluoromethyl)phenyl)-spiro[cyclopropane-1,3′-indoline]-1′-yl)methyl)benzoic acid], the concentration for a half-maximal effect (EC50) came to 2.36 µM.
To `O=C(O)c1cccc(CN2C(=O)[C@@]3(C[C@@H]3c3ccc(Cl)cc3)c3cc(Cl)ccc32)c1` (racemic) [Example 14, (1R,2R) and (1S,2S)-3-((5′-chloro-2-(4-chlorophenyl)-2′-oxospiro[cyclopropane-1,3′-indoline]-1′-yl)methyl)benzoic acid] belongs 2.03 µM; to `O=C(O)c1cccc(CN2C(=O)[C@@]3(C[C@@H]3c3ccc(Cl)cc3)c3cc(Br)ccc32)c1` (racemic) [Example 15, (1R,2R) and (1S,2S)-3-((5′-bromo-2-(4-chlorophenyl)-2′-oxospiro[cyclopropane-1,3′-indoline]-1′-yl)methyl)benzoic acid], 2.48 µM.
To `O=C(O)c1cccc(CN2C(=O)[C@]3(C[C@@H]3c3ccc(Cl)cc3)c3cc(Br)ccc32)c1` (racemic) [Example 16, (1S,2R) and (1R,2S)-3-((5′-bromo-2-(4-chlorophenyl)-2′-oxospiro[cyclopropane-1,3′-indoline]-1′-yl)methyl)benzoic acid] belongs 2.72 µM.
To `N#Cc1ccc([C@@H]2C[C@]23C(=O)N(Cc2cccc(C(=O)O)c2)c2ccccc23)cc1` (racemic) [Example 17, (1S,2S) and (1R,2R)-3-((2-(4-cyanophenyl)-2′-oxospiro[cyclopropane-1,3′-indoline]-1′-yl)methyl)benzoic acid] belongs 1.63 µM; to `COc1cccc([C@H]2C[C@]23C(=O)N(Cc2cccc(C(=O)O)c2)c2ccccc23)c1` (racemic) [Example 18, (1S,2R) and (1R,2S)-3-((2-(3-methoxyphenyl)-2′-oxospiro[cyclopropane-1,3′-indoline]-1′-yl)methyl)benzoic acid], 1.66 µM; to `COc1cccc([C@@H]2C[C@]23C(=O)N(Cc2cccc(C(=O)O)c2)c2ccccc23)c1` (racemic) [Example 19, (1S,2S) and (1R,2R)-3-((2-(3-methoxyphenyl)-2′-oxospiro[cyclopropane-1,3′-indoline]-1′-yl)methyl)benzoic acid], 1.42 µM.
`COc1ccc([C@@H]2C[C@]23C(=O)N(Cc2cccc(C(=O)O)c2)c2ccccc23)cc1` (racemic) [Example 20, (1S,2S) and (1R,2R)-3-((2-(4-methoxyphenyl)-2′-oxospiro[cyclopropane-1,3′-indoline]-1′-yl)methyl)benzoic acid]: the EC50 turned out to be 0.9 µM.
To `COc1ccc([C@H]2C[C@]23C(=O)N(Cc2cccc(C(=O)O)c2)c2ccccc23)cc1` (racemic) [Example 21, (1S,2R) and (1R,2S)-3-((2-(4-methoxyphenyl)-2′-oxospiro[cyclopropane-1,3′-indoline]-1′-yl)methyl)benzoic acid] belongs 2.03 µM.
To `O=C(O)c1cccc(CN2C(=O)[C@]3(C[C@@H]3c3ccc(Cl)cc3)c3cc(F)ccc32)c1` (racemic) [Example 22, (1S,2R) and (1R,2S)-3-((2-(4-chlorophenyl)-5′-fluoro-2′-oxospiro[cyclopropane-1,3′-indoline]-1′-yl)methyl)benzoic acid] belongs 11.2 µM.
For `O=C(O)c1cccc(CN2C(=O)[C@]3(C[C@H]3c3ccc(Cl)cc3)c3cc(F)ccc32)c1` (racemic) [Example 23, (1S,2S) and (1R,2R)-3-((2-(4-chlorophenyl)-5′-fluoro-2′-oxospiro[cyclopropane-1,3′-indoline]-1′-yl)methyl)benzoic acid], the EC50 is 1.66 µM.
To `O=C(O)c1cccc(CN2C(=O)[C@]3(C[C@@H]3c3ccc(F)cc3)c3ccccc32)c1` (racemic) [Example 24, (1S,2R) and (1R,2S)-3-((-2-(4-fluorophenyl)-2′-oxospiro[cyclopropane-1,3′-indoline]-1′-yl)methyl)benzoic acid] belongs 5.75 µM; to `O=C(O)c1cccc(CN2C(=O)[C@]3(C[C@H]3c3ccc(F)cc3)c3ccccc32)c1` (racemic) [Example 26, (1S,2S) and (1R,2R)-3-((-2-(4-fluorophenyl)-2′-oxospiro[cyclopropane-1,3′-indoline]-1′-yl)methyl)benzoic acid], 1.79 µM.
On to `O=C(c1cccc(CN2C(=O)[C@]3(C[C@@H]3c3ccc(Cl)cc3)c3ccccc32)c1)N1CCCCC1` (racemic) [Example 60, (1S,2R) and (1R,2S)-2-(4-chlorophenyl)-1′-(3-(piperidine-1-carbonyl)benzyl) Spiro[cyclopropane-1,3′-indolin]-2′-one], for which the EC50 is 3.5 µM.
Turning to `CC(C)NC(=O)c1cccc(CN2C(=O)[C@@]3(C[C@H]3c3ccc(Cl)cc3)c3ccccc32)c1` (racemic) [Example 61, (1R,2S) and (1S,2R)-3-((2-(4-chlorophenyl)-2′-oxospiro[cyclopropane-1,3′-indoline]-1′-yl)methyl)-N-isopropylbenzamide], the half-maximal effective concentration (EC50) amounted to 8.67 µM.
As for `O=C(c1cccc(CN2C(=O)[C@]3(C[C@@H]3c3ccc(Cl)cc3)c3ccccc32)c1)N1CCNCC1` (racemic) [Example 62, (1S,2R) and (1R,2S)-2-(4-chlorophenyl)-1′-(3-(piperazine-1-carbonyl)benzyl)spiro[cyclopropane-1,3′-indolin]-2′-one], the EC50 worked out at 6.57 µM.
For the compound `O=C(c1cccc(CN2C(=O)[C@@]3(C[C@H]3c3ccc(Cl)cc3)c3ccccc32)c1)N1CCOCC1` (racemic) [Example 63, (1R,2S) and (1S,2R)-2-(4-chlorophenyl)-1′-(3-(morpholine-4-carbonyl)benzyl)spiro[cyclopropane-1,3′-indolin]-2′-one], the 50% effective concentration (EC50) turned out to be 1.54 µM.
To `O=C(c1cccc(CN2C(=O)[C@@]3(C[C@H]3c3ccc(Cl)cc3)c3ccccc32)c1)N1CCN(c2ccncc2)CC1` (racemic) [Example 64, (1R,2S) and (1S,2R)-2-(4-chlorophenyl)-1′-(3-(4-(pyridin-4-yl)piperazine-1-carbonyl)benzyl)spiro[cyclopropane-1,3′-indolin]-2′-one] belongs 1.6 µM; to `CC(C)N1CCN(C(=O)c2cccc(CN3C(=O)[C@]4(C[C@@H]4c4ccc(Cl)cc4)c4ccccc43)c2)CC1` (racemic) [Example 65, (1S,2R) and (1R,2S)-2-(4-chlorophenyl)-1′-(3-(4-isopropylpiperazine-1-carbonyl)benzyl)spiro[cyclopropane-1,3′-indolin]-2′-one], 1.71 µM; to `Cc1cc(NC(=O)c2cccc(CN3C(=O)[C@@]4(C[C@H]4c4ccc(Cl)cc4)c4ccccc43)c2)[nH]n1` (racemic) [Example 67, (1R,2S) and (1S,2R)-3-((2-(4-chlorophenyl)-2′-oxospiro[cyclopropane-1,3′-indoline]-1′-yl)methyl)-N-(3-methyl-1 H-pyrazol-5-yl)benzamide], 2.29 µM.
To `O=C(O)c1cccc(CN2C(=O)[C@]3(C[C@@H]3c3ccc(Cl)cc3)c3ccccc32)n1` (racemic) [Example 68, (1S,2R) and (1R,2S)-6-((2-(4-chlorophenyl)-2′-oxospiro[cyclopropane-1,3′-indoline]-1′-yl)methyl)picolinic acid] belongs 2.8 µM; to `O=C1N(CC2CCOCC2)c2ccccc2[C@@]12C[C@@H]2c1ccc(Cl)cc1` (racemic) [Example 70, (1S,2R) and (1R,2S)-2-(4-chlorophenyl)-1′-((tetrahydro-2 H-pyran-4-yl)methyl)spiro[cyclopropane-1,3′-indolin]-2′-one], 1.54 µM.
